Tests used:
Experiment in all cases: relative viability (nuclei count vs DMSO), 5 days (fraction); higher = more cells survive
Obatoclax + Olaparib = compound: COC1=CC(c2cc3ccccc3[nH]2)=N/C1=C\c1[nH]c(C)cc1C [Obatoclax] + O=C(c1cc(Cc2n[nH]c(=O)c3ccccc23)ccc1F)N1CCN(C(=O)C2CC2)CC1 [Olaparib] (partner 8 µM)
Method in brief: (§1)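 Lung cancer cell lines in 1536-well plates got either a single drug or a fixed anchor-drug dose together with five library-drug doses (not always all listed) in √10 steps, by pin tool, on the day after seeding. Nuclei were counted after 5 days, and relative viability is the treated-to-vehicle ratio of nuclei counts. Values are medians of duplicate plates.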

Bortezomib + Linsitinib = compound: CC(C)C[C@H](NC(=O)[C@H](Cc1ccccc1)NC(=O)c1cnccn1)B(O)O [Bortezomib] + C[C@]1(O)C[C@@H](c2nc(-c3ccc4ccc(-c5ccccc5)nc4c3)c3c(N)nccn32)C1 [Linsitinib] (partner 1 µM)
Method in brief: as §1

Bortezomib + Crizotinib = compound: CC(C)C[C@H](NC(=O)[C@H](Cc1ccccc1)NC(=O)c1cnccn1)B(O)O [Bortezomib] + C[C@@H](Oc1cc(-c2cnn(C3CCNCC3)c2)cnc1N)c1c(Cl)ccc(F)c1Cl [Crizotinib] (partner 1 µM)
Method in brief: as §1

Obatoclax + Linsitinib = compound: COC1=CC(c2cc3ccccc3[nH]2)=N/C1=C\c1[nH]c(C)cc1C [Obatoclax] + C[C@]1(O)C[C@@H](c2nc(-c3ccc4ccc(-c5ccccc5)nc4c3)c3c(N)nccn32)C1 [Linsitinib] (partner 1 µM)
Method in brief: as §1

| Cell Line | relative viability (Obatoclax + Olaparib; first compound 0.01 µM) | relative viability (Obatoclax + Olaparib; first compound 0.03162 µM) | relative viability (Obatoclax + Olaparib; first compound 0.1 µM) | relative viability (Obatoclax + Olaparib; first compound 0.3162 µM) | relative viability (Obatoclax + Olaparib; first compound 1 µM) | relative viability (Bortezomib + Linsitinib; first compound 0.0002 µM) | relative viability (Bortezomib + Linsitinib; first compound 0.000632 µM) | relative viability (Bortezomib + Linsitinib; first compound 0.002 µM) | relative viability (Bortezomib + Linsitinib; first compound 0.006325 µM) | relative viability (Bortezomib + Linsitinib; first compound 0.02 µM) | relative viability (Bortezomib + Crizotinib; first compound 0.0002 µM) | relative viability (Bortezomib + Crizotinib; first compound 0.000632 µM) | relative viability (Bortezomib + Crizotinib; first compound 0.002 µM) | relative viability (Bortezomib + Crizotinib; first compound 0.006325 µM) | relative viability (Bortezomib + Crizotinib; first compound 0.02 µM) | relative viability (Obatoclax + Linsitinib; first compound 0.01 µM) | relative viability (Obatoclax + Linsitinib; first compound 0.03162 µM) | relative viability (Obatoclax + Linsitinib; first compound 0.1 µM) | relative viability (Obatoclax + Linsitinib; first compound 0.3162 µM) | relative viability (Obatoclax + Linsitinib; first compound 1 µM) |
| --- | --- | --- | --- | --- | --- | --- | --- | --- | --- | --- | --- | --- | --- | --- | --- | --- | --- | --- | --- | --- |
| LCLC-97TM1 | 0.273 | 0.38 | 0.389 | 0.293 | 0.348 | 0.187 | 0.17 | 0.14 | 0.146 | 0.111 | 0.4 | 0.329 | 0.111 | 0.114 | 0.118 | 0.166 | 0.224 | 0.182 | 0.163 | 0.179 |
| NCI-H838 | 0.747 | 0.79 | 0.792 | 0.577 | 0.255 | 0.995 | 1.01 | 0.962 | 0.142 | 0.145 | 0.822 | 0.811 | 0.916 | 0.348 | 0.123 | 0.984 | 1.06 | 0.862 | 0.717 | 0.935 |
| NCI-H520 | 0.301 | 0.323 | 0.372 | 0.289 | 0.208 | 1.12 | 0.991 | 0.483 | 0.137 | 0.143 | 0.913 | 0.759 | 0.894 | 0.102 | 0.102 | 0.925 | 0.891 | 1.12 | 0.583 | 0.262 |
| NCI-H2347 | 0.56 | 0.572 | 0.528 | 0.524 | 0.476 | 0.93 | 0.92 | 0.848 | 0.29 | 0.325 | 0.657 | 0.582 | 0.348 | 0.291 | 0.298 | 0.915 | 0.91 | 0.787 | 0.91 | 0.909 |
| NCI-H441 | 0.63 | 0.6 | 0.527 | 0.359 | 0.288 | 0.497 | 0.41 | 0.406 | 0.343 | 0.103 | 0.584 | 0.716 | 0.29 | 0.135 | 0.129 | 0.683 | 0.551 | 0.394 | 0.52 | 0.435 |
| NCI-H358 | 0.543 | 0.61 | 0.582 | 0.384 | 0.141 | 0.755 | 0.622 | 0.625 | 0.162 | 0.141 | 0.63 | 0.56 | 0.503 | 0.126 | 0.113 | 0.735 | 0.504 | 0.394 | 0.344 | 0.278 |
| NCI-H2405 | 0.911 | 0.981 |  | 0.935 | 0.734 | 0.868 |  | 0.32 | 0.147 | 0.169 | 0.88 | 0.83 | 0.834 | 0.24 | 0.15 | 0.936 | 1.11 |  | 0.866 | 0.87 |
| HCC-15 | 0.734 | 0.769 | 0.694 | 0.763 | 0.704 | 0.815 | 0.947 | 0.91 | 0.504 | 0.0972 | 0.784 | 0.825 | 0.904 | 0.46 | 0.0815 | 0.879 | 0.708 | 0.845 | 0.736 | 0.606 |
